Reference: US20230190750A1, “METHODS OF TREATING AND PREVENTING CANCER DRUG RESISTANCE” (Genentech, Inc., priority 2014, published 2023)

Columns and labels:
Format in all cases: cell-based
[1] = tested on: HS 895.T normal skin fibroblast cells; experiment: Single and dual drug treatment, cell growth of HS 895.T normal skin fibroblast cells; settings: growth observed on days 7, 14, 21, 28, 35
Experimental: FIG. 13.|A drug screen was performed on Hs 895.T normal skin fibroblast cells. The cells were treated with DMSO (control), GDC-0973 (i.e., cobimetinib), GDC-0032 (PI3K-Alpha Inhibitor), BFJ-398 (pan FGFR inhibitor), GDC-0973 and GDC-0032, or GDC-0973 and BGJ-398.
Experiments were performed on HS 895.T normal skin fibroblast cells to determine the effect of single and dual drug treatment on cell growth (FIG. 13). The cells were treated with DMSO (control), GDC-0973, GDC-0032, BGJ398, GDC-0973 and GDC-0032, or GDC-0973 and BGJ398. Cell growth was observed on days 7, 14, 21, 28, and 35, or until the cells had reached near 100% confluency. […] The cells treated with GDC-0973, GDC-0032, GDC-0973 and GDC-0032, and GDC-0973 and BGJ398 never reached confluency through day 35.

CHL-1 melanoma cells = experiment: Single and dual drug treatment, cell growth of CHL-1 melanoma cells; settings: growth observed on days 7, 14, 21, 28, 35
Experimental: FIG. 11.|A drug screen was performed on CHL-1 melanoma cells. The cells were treated with DMSO (control), GDC-0973 (i.e., cobimetinib), GDC-0032 (PI3K-Alpha Inhibitor), BFJ-398 (pan FGFR inhibitor), GDC-0973 and GDC-0032, or GDC-0973 and BGJ-398.
Experiments were performed on CHL-1 melanoma cells to determine the effect of single and dual drug treatment on cell growth (FIG. 11). The cells were treated with DMSO (control), GDC-0973, GDC-0032, BGJ398, GDC-0973 and GDC-0032, or GDC-0973 and BGJ398. Cell growth was observed on days 7, 14, 21, 28, and 35, or until the cells had reached near 100% confluency. […] In contrast, cells treated with the combination treatment of GDC-0973 and GDC-0032 or the combination of GDC-0973 and BGJ398 never reached confluency through day 35.

[2] = tested on: pERK in SK MEL 24 VemR cells; experiment: Western blot of treated SK MEL 24 VemR cells; settings: GDC-0973 0.5 μM, BGJ398 1 μM, 24 hours
Experimental: FIG. 14.|Single resistant SK MEL 24 VemR (SK MEL 24 cells resistant to vemurafenib) were treated with vemurafenib (i.e., PLX4032), BGJ398, and/or cobimetinib (i.e., GDC-0973). The cells were then processed and the presence/absence of FGFR1, pAKT, pMEK, pERK, PARP, pBAD, BIM, and βactin (control) were detected by Western blot. A melanoma cell line was made that is resistant to vemurafenib (“SK MEL 24 VemR”). The SK MEL 24 VemR cells were treated with vemurafenib (PLX4032), BGJ398, GDC-0973, BGJ398 and GDC-0973, vemurafenib and BGJ398, vemurafenib and GDC-0973, or vemurafenib, BGJ398, and GDC-0973. In all treatment conditions, the concentration of vemurafenib was 5 μM, the concentration of BGJ398 was 1 μM, and the concentration of GDC-0973 was 0.5 μM. The exposure time for all treatments was 24 hours. The cells were then processed and FGFR1, pAKT, pMEK, pERK, PARP, pBAD, BIM, and P-actin were probed for using Western blot.

[3] = tested on: HER2+ breast cancer cells; experiment: Immunoblot of HER2+ breast cancer cells exposed to FGF2 with or without lapatinib; settings: FGF2 50 ng/mL for 10 minutes or 24 hours, with or without lapatinib 2 μM
Experimental: FIG. 6A-B.| FGF2 reactivates key signalling pathways to promote resistance and stimulates sustained activation of downstream signaling. A, An immunoblot of cells exposed to FGF2 for 10 min compared to cells absent exposure. B, An immunoblot of cells exposed to FGF2 for 24 hrs compared to cells absent FGF2 exposure.
Furthermore, it was determined that FGF2 reactivates key signalling pathways to promote resistance (FIG. 6). This was shown in a cell assay wherein HER2+ breast cancer cells were exposed to FGF2 (50 ng/mL) for 10 minutes in the presence or absence of lapatinib (2 μM) (FIG. 6A). Similarly, an assay was performed wherein HER2+ breast cancer cells were exposed to FGF2 (50 ng/mL) for 24 hours in the presence or absence of lapatinib (2 μM) (FIG. 6B).

[4] = tested on: B-raf mutant melanoma cell lines; experiment: FGF2 rescue (drug resistance) in B-raf mutant melanoma cell lines
Experimental: (§1) FIG. 5A-C.| Screen of 10 melanoma cell lines and 10 breast cancer lines was performed to determine the role of FGF signalling in drug resistance. […] C, Summary of FGF receptors, their subfamily, and their ligands.
(§2) FGF signalling and resistance was studied in 10 HER2+ breast cancer cell lines and in 10 B-raf mutant melanoma cell lines (FIG. 5). 7 of the 10 HER2+ breast cancer cell lines were rescued by FGF2 (FIG. 5A). 8 of the 10 B-raf […] were rescued by FGF2 (FIG. 5B). Subsequent analysis determined that 50-70% of the melanoma lines with the V600E mutation were rescued by FGF2 (n=30).

[5] = tested on: HER2+ breast cancer cell lines; experiment: FGF2 rescue (drug resistance) in HER2+ breast cancer cell lines; settings: of 10 HER2+ breast cancer cell lines
Experimental: as §1, §2

melanoma cell line = experiment: Secreted factor screen for resistance to B-raf and MEK antagonists in melanoma cell lines
Experimental: (§3) FIG. 1A-D.| Factors secreted by tumor cells and/or the tumor microenvironment contribute to drug resistance through activation of cell-surface receptors. […] D, Secreted growth factors which promote resistance to PLX4032 reactivate MAPK and PI3K pathways. Activation of MAPK by FGF2, MAPK and AKT by HGF and AKT by NRG1 and SCF are shown in 624 MEL cells in the presence of PLX4032. Treatments were 5 μM PLX4032 for 24 hours and 50 ng·mL FGF2, HGF, NRGB1, or SCF for 10 minutes.

624 MEL cells = experiment: Reactivation of MAPK and PI3K pathways by secreted growth factors in presence of PLX4032; settings: 5 μM PLX4032 24 hours, 50 ng/mL factor 10 minutes
Experimental: as §3

Row | Compound | day by which cells reached confluency (CHL-1 melanoma cells) | rescue of tumor cells from B-raf and MEK antagonists (melanoma cell line) | pathway activated in the presence of PLX4032 (624 MEL cells) | also measured
1 | CCN1CCN(c2ccc(Nc3cc(N(C)C(=O)Nc4c(Cl)c(OC)cc(OC)c4Cl)ncn3)cc2)CC1 [BGJ398, 3-(2,6-Dichloro-3,5-dimethoxy-phenyl)-1-{6-[4-(4-ethyl-piperazin-1-yl)-phenylamino]-pyrimidin-4-yl}-1-methyl-urea] | ≤ 14 days |  |  | day by which cells reached confluency [1]: ≤ 28 days
2 | Cc1nc(-c2cn3c(n2)-c2ccc(-c4cnn(C(C)(C)C(N)=O)c4)cc2OCC3)n(C(C)C)n1 [GDC-0032] | ≤ 7 days |  |  | 
3 | O=C(c1ccc(F)c(F)c1Nc1ccc(I)cc1F)N1CC(O)([C@@H]2CCCCN2)C1 [GDC-0973, [3,4-Difluoro-2-(2-fluoro-4-iodo-phenylamino)-phenyl]-((S)-3-hydroxy-3-pi-peridin-2-yl-azetidin-1-yl)-methanone] | ≤ 28 days |  |  | pERK levels (Western blot) [2]: lower pERK levels
4 | FGF2: secreted growth factor, FGFR ligand, promotes resistance |  | most broadly and potently | MAPK | activation of downstream signalling [3]: stimulates sustained activation of downstream signalling; number of cell lines rescued by FGF2 ([4]; of 10 cell lines (FIG. 5B)): 8; melanoma lines with the V600E mutation rescued by FGF2 ([4]; subsequent analysis, n=30): 50-70%; number of cell lines rescued by FGF2 [5]: 7
5 | HGF: secreted growth factor promoting resistance to PLX4032 |  | most broadly and potently | MAPK and AKT | 
6 | SCF: secreted growth factor promoting resistance to PLX4032 |  |  | AKT | 
